The source made the active and inactive calls.
How the values were obtained:
Type in all cases: functional
Activin receptor type-1 = target: T1, Activin receptor type-1 (Homo sapiens, UniProt Q04771); assay: Navigating the Kinome. Panel member name: ACVR1
T1 sequence (Q04771 whole entry): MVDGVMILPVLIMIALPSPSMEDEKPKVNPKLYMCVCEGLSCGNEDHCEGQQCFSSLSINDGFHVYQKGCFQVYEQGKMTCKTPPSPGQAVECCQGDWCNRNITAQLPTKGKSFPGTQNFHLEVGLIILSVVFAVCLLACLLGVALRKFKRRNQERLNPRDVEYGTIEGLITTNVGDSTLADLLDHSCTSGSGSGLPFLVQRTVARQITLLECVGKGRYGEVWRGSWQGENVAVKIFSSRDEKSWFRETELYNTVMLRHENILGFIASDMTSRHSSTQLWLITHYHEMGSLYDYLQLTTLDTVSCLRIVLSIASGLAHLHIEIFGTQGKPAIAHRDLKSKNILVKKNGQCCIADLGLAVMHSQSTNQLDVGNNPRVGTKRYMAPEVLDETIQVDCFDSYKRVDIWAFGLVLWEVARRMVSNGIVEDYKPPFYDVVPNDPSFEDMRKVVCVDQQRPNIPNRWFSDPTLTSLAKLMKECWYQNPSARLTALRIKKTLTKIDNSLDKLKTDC

[1] = target: T2, Tyrosine-protein kinase JAK3 (Homo sapiens, UniProt P52333)
T2 sequence (P52333 whole entry): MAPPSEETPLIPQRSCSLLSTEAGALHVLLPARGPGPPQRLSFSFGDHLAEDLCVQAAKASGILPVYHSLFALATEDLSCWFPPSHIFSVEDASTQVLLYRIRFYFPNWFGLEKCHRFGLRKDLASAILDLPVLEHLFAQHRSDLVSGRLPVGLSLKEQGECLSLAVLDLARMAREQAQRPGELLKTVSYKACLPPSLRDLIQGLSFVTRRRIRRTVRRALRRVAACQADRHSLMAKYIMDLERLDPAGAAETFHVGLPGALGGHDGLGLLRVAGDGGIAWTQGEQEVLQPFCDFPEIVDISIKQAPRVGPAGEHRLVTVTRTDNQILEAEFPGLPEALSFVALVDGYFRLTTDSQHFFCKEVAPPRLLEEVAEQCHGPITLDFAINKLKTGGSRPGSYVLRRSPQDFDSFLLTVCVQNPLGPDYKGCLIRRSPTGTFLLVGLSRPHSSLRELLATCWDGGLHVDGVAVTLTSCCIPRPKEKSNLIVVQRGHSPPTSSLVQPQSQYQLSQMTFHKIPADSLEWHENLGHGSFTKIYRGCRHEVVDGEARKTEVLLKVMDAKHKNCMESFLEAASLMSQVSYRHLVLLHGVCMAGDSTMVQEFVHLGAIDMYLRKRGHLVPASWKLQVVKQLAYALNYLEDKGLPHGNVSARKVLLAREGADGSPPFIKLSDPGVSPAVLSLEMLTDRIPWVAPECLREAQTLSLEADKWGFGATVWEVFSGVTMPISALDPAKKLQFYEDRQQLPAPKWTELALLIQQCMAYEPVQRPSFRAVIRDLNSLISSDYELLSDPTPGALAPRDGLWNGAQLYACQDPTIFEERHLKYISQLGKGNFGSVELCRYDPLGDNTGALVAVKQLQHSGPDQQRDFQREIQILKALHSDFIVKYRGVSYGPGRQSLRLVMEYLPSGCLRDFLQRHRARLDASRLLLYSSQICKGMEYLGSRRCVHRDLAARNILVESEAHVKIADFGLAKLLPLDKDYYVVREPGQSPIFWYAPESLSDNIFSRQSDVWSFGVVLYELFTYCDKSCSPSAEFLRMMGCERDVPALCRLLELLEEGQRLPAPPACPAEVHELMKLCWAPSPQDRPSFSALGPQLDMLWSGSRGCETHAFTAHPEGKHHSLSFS

[2] = target: T3, Serine/threonine-protein kinase TAO1 (Homo sapiens, UniProt Q7L7X3)
T3 sequence (Q7L7X3 whole entry): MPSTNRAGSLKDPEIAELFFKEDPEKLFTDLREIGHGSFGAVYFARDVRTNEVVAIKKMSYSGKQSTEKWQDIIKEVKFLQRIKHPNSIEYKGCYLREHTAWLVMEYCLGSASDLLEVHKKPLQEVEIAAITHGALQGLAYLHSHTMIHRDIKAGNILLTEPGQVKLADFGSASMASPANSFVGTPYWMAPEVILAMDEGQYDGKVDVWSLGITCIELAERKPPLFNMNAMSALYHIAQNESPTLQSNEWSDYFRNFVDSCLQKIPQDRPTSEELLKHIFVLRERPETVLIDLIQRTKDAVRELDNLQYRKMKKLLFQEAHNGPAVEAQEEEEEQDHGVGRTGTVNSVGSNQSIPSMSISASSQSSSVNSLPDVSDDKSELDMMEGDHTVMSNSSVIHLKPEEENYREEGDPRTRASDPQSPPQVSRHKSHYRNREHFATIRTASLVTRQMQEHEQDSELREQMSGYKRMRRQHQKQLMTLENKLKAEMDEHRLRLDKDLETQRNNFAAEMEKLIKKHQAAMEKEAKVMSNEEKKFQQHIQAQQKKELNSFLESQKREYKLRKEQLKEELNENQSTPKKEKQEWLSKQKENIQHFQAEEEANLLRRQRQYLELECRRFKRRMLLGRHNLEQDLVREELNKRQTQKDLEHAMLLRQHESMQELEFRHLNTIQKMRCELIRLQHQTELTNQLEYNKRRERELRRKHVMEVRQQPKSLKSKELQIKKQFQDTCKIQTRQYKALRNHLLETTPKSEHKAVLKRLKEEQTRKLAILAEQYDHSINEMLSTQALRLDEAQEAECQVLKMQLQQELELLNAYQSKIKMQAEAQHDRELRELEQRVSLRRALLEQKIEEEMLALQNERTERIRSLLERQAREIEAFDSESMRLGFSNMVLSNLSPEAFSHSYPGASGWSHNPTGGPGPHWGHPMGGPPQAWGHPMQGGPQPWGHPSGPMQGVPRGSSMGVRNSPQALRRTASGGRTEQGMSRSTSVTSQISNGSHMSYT

[3] = target: Rho-associated protein kinase 1 (Homo sapiens, UniProt Q13464);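 also: measured within a broad kinome-wide panel profiling many kinases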
Rho-associated protein kinase 1, sequence (Q13464 whole entry): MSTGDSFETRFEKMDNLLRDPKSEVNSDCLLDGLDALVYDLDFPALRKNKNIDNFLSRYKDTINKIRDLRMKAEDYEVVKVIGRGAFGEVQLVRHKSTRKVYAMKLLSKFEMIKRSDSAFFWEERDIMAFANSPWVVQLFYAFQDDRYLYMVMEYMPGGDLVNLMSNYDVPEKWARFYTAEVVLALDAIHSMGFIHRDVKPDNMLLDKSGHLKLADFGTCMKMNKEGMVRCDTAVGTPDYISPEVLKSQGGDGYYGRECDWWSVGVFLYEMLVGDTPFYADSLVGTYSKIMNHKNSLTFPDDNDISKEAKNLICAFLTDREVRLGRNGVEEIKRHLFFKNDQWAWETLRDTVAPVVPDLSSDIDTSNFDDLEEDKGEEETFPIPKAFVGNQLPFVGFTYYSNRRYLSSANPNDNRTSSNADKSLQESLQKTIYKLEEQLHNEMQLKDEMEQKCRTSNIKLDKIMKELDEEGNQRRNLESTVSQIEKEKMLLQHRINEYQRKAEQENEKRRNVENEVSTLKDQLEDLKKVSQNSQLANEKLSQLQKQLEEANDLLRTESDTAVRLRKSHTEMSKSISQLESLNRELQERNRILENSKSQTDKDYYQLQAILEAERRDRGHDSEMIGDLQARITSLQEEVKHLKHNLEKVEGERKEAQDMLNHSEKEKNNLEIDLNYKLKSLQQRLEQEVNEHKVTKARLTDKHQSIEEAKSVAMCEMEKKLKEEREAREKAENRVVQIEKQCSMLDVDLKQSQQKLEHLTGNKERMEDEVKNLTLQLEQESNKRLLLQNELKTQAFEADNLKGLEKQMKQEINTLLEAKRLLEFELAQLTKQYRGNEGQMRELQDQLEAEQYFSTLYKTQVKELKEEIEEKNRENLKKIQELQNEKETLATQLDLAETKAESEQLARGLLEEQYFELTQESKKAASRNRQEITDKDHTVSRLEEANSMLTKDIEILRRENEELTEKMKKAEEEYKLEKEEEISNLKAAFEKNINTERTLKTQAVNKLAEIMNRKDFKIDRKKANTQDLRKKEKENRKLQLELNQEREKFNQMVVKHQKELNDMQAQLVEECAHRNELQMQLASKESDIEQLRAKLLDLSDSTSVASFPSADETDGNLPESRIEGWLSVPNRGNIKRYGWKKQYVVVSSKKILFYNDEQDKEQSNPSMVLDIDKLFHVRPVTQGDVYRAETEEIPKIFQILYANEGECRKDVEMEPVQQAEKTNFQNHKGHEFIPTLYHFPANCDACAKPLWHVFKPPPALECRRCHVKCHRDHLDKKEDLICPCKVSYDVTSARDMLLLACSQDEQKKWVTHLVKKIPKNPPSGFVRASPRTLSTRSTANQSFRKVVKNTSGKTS

[4] = target: Cyclin-dependent kinase 8 (Homo sapiens, UniProt P49336); assay: Navigating the Kinome. Panel member name: CDK8
Cyclin-dependent kinase 8, sequence (P49336 whole entry): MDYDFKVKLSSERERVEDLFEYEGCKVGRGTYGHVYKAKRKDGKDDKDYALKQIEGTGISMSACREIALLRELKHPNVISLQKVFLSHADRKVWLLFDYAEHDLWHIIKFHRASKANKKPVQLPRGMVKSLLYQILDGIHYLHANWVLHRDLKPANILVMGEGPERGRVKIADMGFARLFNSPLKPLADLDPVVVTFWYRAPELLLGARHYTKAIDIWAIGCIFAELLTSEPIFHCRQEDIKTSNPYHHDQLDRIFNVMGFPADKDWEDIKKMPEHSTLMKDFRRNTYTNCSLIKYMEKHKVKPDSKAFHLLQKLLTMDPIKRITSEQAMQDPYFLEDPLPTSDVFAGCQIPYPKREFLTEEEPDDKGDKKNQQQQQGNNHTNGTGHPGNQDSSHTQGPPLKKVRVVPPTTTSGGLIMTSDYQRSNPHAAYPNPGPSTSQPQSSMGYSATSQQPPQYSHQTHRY

[5] = target: Glycogen synthase kinase-3 beta (Homo sapiens, UniProt P49841);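 also: value comes from a broad kinome profiling panel, with GSK3B as the panel member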
Glycogen synthase kinase-3 beta, sequence (P49841 whole entry): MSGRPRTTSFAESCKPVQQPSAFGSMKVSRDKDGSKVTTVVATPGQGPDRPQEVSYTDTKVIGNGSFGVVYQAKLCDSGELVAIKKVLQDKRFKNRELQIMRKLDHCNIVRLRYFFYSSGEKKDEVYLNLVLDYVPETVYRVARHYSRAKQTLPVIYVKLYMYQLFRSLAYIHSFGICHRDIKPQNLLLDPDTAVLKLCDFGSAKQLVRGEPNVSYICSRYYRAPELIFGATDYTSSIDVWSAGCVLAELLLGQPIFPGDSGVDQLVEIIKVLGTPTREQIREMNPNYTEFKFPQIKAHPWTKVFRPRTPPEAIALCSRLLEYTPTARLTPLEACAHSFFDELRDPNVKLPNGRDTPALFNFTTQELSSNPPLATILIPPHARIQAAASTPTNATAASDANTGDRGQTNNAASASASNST

[6] = target: Macrophage colony-stimulating factor 1 receptor (Homo sapiens, UniProt P07333);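 also: value comes from the Navigating the Kinome screening panel, CSF1R member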
Macrophage colony-stimulating factor 1 receptor, sequence (P07333 whole entry): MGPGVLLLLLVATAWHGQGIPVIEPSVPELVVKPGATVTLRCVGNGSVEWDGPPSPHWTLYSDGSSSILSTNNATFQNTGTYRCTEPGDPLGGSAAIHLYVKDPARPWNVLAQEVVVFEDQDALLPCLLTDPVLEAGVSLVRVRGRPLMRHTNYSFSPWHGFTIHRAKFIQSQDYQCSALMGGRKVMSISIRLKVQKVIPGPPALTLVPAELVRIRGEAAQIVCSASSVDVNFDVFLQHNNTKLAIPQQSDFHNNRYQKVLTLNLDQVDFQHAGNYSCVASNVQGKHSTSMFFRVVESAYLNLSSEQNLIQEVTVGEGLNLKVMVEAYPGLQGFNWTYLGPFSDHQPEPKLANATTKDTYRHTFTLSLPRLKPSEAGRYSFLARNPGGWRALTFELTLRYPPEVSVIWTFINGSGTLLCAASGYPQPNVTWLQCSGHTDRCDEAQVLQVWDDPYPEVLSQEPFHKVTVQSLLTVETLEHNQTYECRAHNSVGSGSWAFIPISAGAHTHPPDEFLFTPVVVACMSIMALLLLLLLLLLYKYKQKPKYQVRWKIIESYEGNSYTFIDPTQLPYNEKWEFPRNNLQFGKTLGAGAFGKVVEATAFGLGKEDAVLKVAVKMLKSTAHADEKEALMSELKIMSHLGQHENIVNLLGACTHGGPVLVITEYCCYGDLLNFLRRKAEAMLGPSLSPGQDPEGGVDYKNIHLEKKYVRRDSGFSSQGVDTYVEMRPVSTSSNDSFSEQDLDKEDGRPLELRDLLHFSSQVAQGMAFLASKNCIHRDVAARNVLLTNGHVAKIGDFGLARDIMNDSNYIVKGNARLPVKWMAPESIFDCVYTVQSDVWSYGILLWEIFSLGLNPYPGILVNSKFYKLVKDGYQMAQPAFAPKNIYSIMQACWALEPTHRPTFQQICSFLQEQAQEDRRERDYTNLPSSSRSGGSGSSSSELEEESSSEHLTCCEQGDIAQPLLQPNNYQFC

`CCCCC(=O)Nc1cc(-c2c[nH]c3ncccc23)cc(Cl)n1` was tested, and the Ki (Activin receptor type-1) was > 3.98 µM (inactive), the Ki [1] was > 5.01 µM (inactive) and the Ki [2] was > 6.31 µM (inactive). For the same molecule, the Ki [3] was > 0.0316 µM (inactive), the Ki [4] was 0.0158 µM (active) and the Ki [5] was > 3.98 µM (inactive). For the same molecule, the Ki [6] was > 2.51 µM (inactive).

`Oc1ccc(-c2nc(-c3ccncc3)c(-c3ccc(F)cc3)[nH]2)cc1` [SB-202190] was tested, and the Ki (Activin receptor type-1) was > 3.16 µM (inactive), the Ki [1] was > 5.01 µM (inactive) and the Ki [2] was > 6.31 µM (inactive). The Ki [3] was > 3.98 µM (inactive), the Ki [4] was > 3.98 µM (inactive) and the Ki [5] was > 2.51 µM (inactive). For the same molecule, the Ki [6] was > 2 µM (inactive).

For `COc1cccc(C(C)NC(=O)c2sc(-c3ccncc3)nc2C)c1` (stereo unspecified), the Ki (Activin receptor type-1) was > 3.98 µM (inactive), the Ki [1] was > 5.01 µM (inactive) and the Ki [2] was > 6.31 µM (inactive). The Ki [3] was 0.0316 µM (active), the Ki [4] was > 3.98 µM (inactive) and the Ki [5] was > 3.98 µM (inactive). For the same molecule, the Ki [6] was > 2.51 µM (inactive).
